Test system: MCF-7 cells
Assay: Cell cycle distribution by flow cytometry
Assay type: cell-based, human
Details: 0.1 nM, 24 h
In the case of `C[C@]12CC[C@@H]3c4ccc(O)cc4CC[C@H]3[C@@H]1CC[C@@H]2O` [Compound E2, 17β-estradiol, reference compound], the “Cell Cycle (%) G0/G1” value is reported as 17.34 ± 0.35 *^,‡,§ %, the “Cell Cycle (%) G2/M” value is reported as 54.51 ± 0.57 *^,‡,§ % and the “Cell Cycle (%) S” value is reported as 28.15 ± 0.52 *^,‡,§ %.

Same assay, conditions: 1 nM, 24 h
For `C[C@]12CC[C@@H]3c4ccc(O)cc4CC[C@H]3[C@@H]1CC[C@@H]2O` [Compound E2, 17β-estradiol, reference compound], the “Cell Cycle (%) G0/G1” value was 25.34 ± 0.36 *^,‡,§ %, the “Cell Cycle (%) G2/M” value was 45.14 ± 0.33 *^,‡,§ % and the “Cell Cycle (%) S” value was 29.52 ± 0.46 *^,‡,§ %.

Molecular target: estrogen receptor α
Assay: not given
Details: Table S1, PDB ligands; cited from earlier work
For `O=C(c1ccc(OCCN2CCCC2)cc1)c1c(-c2ccc(O)cc2)sc2cc(O)ccc12` [Compound 2R6Y], the pKi is given as 9.5. For `CC1CCN(CCOc2ccc(C(=O)c3c(-c4ccc(O)cc4)sc4cc(O)ccc34)cc2)CC1` [Compound 2R6W], the pKi is listed as 9.4.

Same assay, conditions: cited from earlier work
In the case of `CC1(O)CCC2c3ccc4cc(O)ccc4c3CCC21C` (stereo not drawn) [Compound 2B1Z], the pIC50 is given as 7.10. In the case of `Oc1ccc([C@@H]2Sc3cc(O)ccc3O[C@@H]2c2ccc(OCCN3CCCCC3)cc2)cc1` [Compound 1SJ0], the pIC50 is listed as 9.09.

Same assay, conditions: crystal test set TSCRY (WT and MUT complexes); cited from earlier work
For `O=C(c1ccc(O)cc1O)c1ccc(O)cc1O` [Compound 4MGC], the pKi is given as 7.00. For `C[C@H]1CCC[C@H](O)CCCCCc2cc(O)cc(O)c2C(=O)O1` [Compound 4MG8], the pKi is listed as 10.00. For `C[C@H]1CCC[C@H](O)CCC/C=C/c2cc(O)cc(O)c2C(=O)O1` [Compound 4TUZ], the pKi is given as 10.00. In the case of `Oc1ccc(C(=C(Cl)Cl)c2ccc(O)cc2)cc1` [Compound 3UUC], the pKi is listed as 5.70. For `Oc1ccc(C(c2ccc(O)cc2)(C(F)(F)F)C(F)(F)F)cc1` [Compound 3UUA], the pKi is given as 8.79. In the case of `CC(C)(c1ccc(O)cc1)c1ccc(O)cc1` [Compound 3UU7], the pKi is given as 8.79. For `OCc1cc(Br)c(-c2ccc(O)cc2)c(-c2ccoc2)c1` [Compound 4DMA], the pKi is listed as 5.60.

Same assay, conditions: ligands of mutated (MUT) ERα complexes, training set; cited from earlier work
In the case of `Oc1ccc(-c2n[nH]c3cc(O)ccc23)c(O)c1` [Compound 2QA6], the pIC50 is listed as 7.30. In the case of `O=C(c1ccc(OCCN2CCCC2)cc1)c1c(-c2ccc(O)cc2)sc2cc(O)ccc12` [Compound 2R6Y], the pIC50 is listed as 8.90. For `CC1CCN(CCOc2ccc(C(=O)c3c(-c4ccc(O)cc4)sc4cc(O)ccc34)cc2)CC1` [Compound 2R6W], the pIC50 is given as 8.60. In the case of `Cc1cc(F)ccc1-c1c(Cc2ccc(/C=C/C(=O)O)cc2)c2ccc(O)cc2oc1=O` [Compound 5AK2], the pIC50 is listed as 8.40.

Same assay, conditions: ligands of wild-type (WT) ERα complexes, training set; cited from earlier work
In the case of `CC/C(=C(\c1ccccc1)c1ccc(/C=C/C(=O)O)cc1)c1ccccc1` [Compound 1R5K], the pIC50 is given as 7.40. For `Oc1ccc2c(c1)CCN(c1ccccc1)[C@H]2c1ccc(N2CCC3CCCCN3C2)cc1` (stereo partly drawn) [Compound 1XQC], the pIC50 is given as 7.20.

Same assay, conditions: modeled test set TSMOD1; cited from earlier work
For `FC(F)(F)c1ccccc1CN=Cc1cn(-c2ccccc2)nc1-c1ccccc1` [Compound I11-4a10], the pIC50 is listed as 3.61. In the case of `O=[N+]([O-])c1ccc(-n2cc(C=Nc3ccc(Cl)cc3)c(-c3ccccc3)n2)cc1` [Compound I11-4b3], the pIC50 is given as 3.61. In the case of `Cc1ccccc1N=Cc1cn(-c2ccccc2)nc1-c1ccccc1` [Compound I11-4a1a], the pIC50 is given as 4.33. For `COc1ccc([C@@H]2CC(=O)c3c(O)cc(O)cc3O2)cc1O` [Hesperetin], the pIC50 is given as 4.4. In the case of `Clc1ccccc1CN=Cc1cn(-c2ccccc2)nc1-c1ccccc1` [Compound I11-4a9], the pIC50 is given as 4.89. In the case of `Cc1ccc(N=Cc2cn(-c3ccccc3)nc2-c2ccccc2)cc1` [Compound I11-4a3b], the pIC50 is given as 4.25. In the case of `Cc1ccc(N=Cc2cn(-c3ccc([N+](=O)[O-])cc3)nc2-c2ccccc2)cc1[N+](=O)[O-]` [Compound I11-4b6], the pIC50 is listed as 3.63. In the case of `Cc1ccccc1N=Cc1cn(-c2ccc([N+](=O)[O-])cc2)nc1-c1ccccc1` [Compound I11-4b1], the pIC50 is listed as 3.58. For `COc1ccc(-c2cc(=O)c3c(O)c(OC)c(OC)cc3o2)cc1O` [Eupatorin], the pIC50 is listed as 5.09. For `Cc1ccc(N=Cc2cn(-c3ccc([N+](=O)[O-])cc3)nc2-c2ccccc2)cc1` [Compound I11-4b2], the pIC50 is listed as 3.58. For `O=C1C[C@@H](c2ccc(O)cc2)Oc2cc(O)cc(O)c21` [Naringenin], the pIC50 is listed as 4.18. In the case of `O=c1cc(-c2ccccc2)oc2cc(O)c(O)c(O)c12` [Baicalein], the pIC50 is given as 4.71. For `O=c1c(O)c(-c2ccc(O)c(O)c2)oc2cc(O)cc(O)c12` [Quercetin], the pIC50 is given as 4.76. In the case of `O=c1c(O)c(-c2ccc(O)c(O)c2)oc2cc(O)ccc12` [Fisetin], the pIC50 is listed as 5.38. In the case of `Brc1ccc(N=Cc2cn(-c3ccccc3)nc2-c2ccccc2)cc1` [Compound I11-4a5], the pIC50 is given as 5.52. For `Cc1cccc(C)c1N=Cc1cn(-c2ccccc2)nc1-c1ccccc1` [Compound I11-4a2], the pIC50 is given as 4.13. In the case of `O=c1c(O)c(-c2ccccc2)oc2cc(O)cc(O)c12` [Galangin], the pIC50 is listed as 4.81. For `Cc1ccc(N=Cc2cn(-c3ccccc3)nc2-c2ccccc2)cc1[N+](=O)[O-]` [Compound I11-4a8], the pIC50 is listed as 5.4.

Same assay, conditions: modeled test set TSMOD2; cited from earlier work
For `Cc1c(-c2ccc(O)cc2)nn(-c2ccc(O)cc2)c1-c1ccc(OCCN2CCCCC2)cc1` [Compound I3-I-A1], the pKi is listed as 7.57. In the case of `CCc1c(-c2ccc(O)cc2)nn(-c2ccc(O)cc2)c1-c1ccc(OCCN(CC)CC)cc1` [Compound I3-I-E2], the pKi is given as 8.74. For `c1ccc(CNc2nc(NCc3ccccc3)nc(NCc3ccccc3)n2)cc1` [Compound I4-1c], the pKi is listed as 3.39. For `CCc1c(-c2ccc(O)cc2)nn(-c2ccc(O)cc2)c1-c1ccc(O)cc1` [Compound I3-I2], the pKi is given as 9.08. For `CCCCc1c(-c2ccc(O)cc2)nn(-c2ccc(O)cc2)c1-c1ccc(O)cc1` [Compound I3-I4], the pKi is listed as 8.68. For `CCCNc1nc(NCCC)nc(NCCC)n1` [Compound I4-1b], the pKi is given as 3.10. For `CCc1c(-c2ccc(O)cc2)nn(-c2ccc(O)cc2)c1-c1ccc(OCCN(C)C)cc1` [Compound I3-I-D], the pKi is given as 8.48. For `Cc1c(-c2ccc(O)cc2)nn(-c2ccc(O)cc2)c1-c1ccc(O)cc1` [Compound I3-I1], the pKi is listed as 7.25. In the case of `CC(C)CNc1nc(NCC(C)C)nc(NCC(C)C)n1` [Compound I4-1a], the pKi is listed as 3.19. For `CCc1c(-c2ccc(O)cc2)nn(-c2ccc(O)cc2)c1-c1ccc(OCCN2CCCCC2)cc1` [Compound I3-I-A2], the pKi is given as 8.60. In the case of `CN(C)c1ccc(C=CC=CC(=O)CCc2ccccc2)cc1` [Compound I6-19], the pKi is listed as 6.04. For `CCc1c(-c2ccc(O)cc2)nn(-c2ccc(O)cc2)c1-c1ccc(OCCN2CCCC2=O)cc1` [Compound I3-I-F], the pKi is listed as 8.64. For `CCc1c(-c2ccc(O)cc2)nn(-c2ccc(O)cc2)c1-c1ccc(OCCN2CCCC2)cc1` [Compound I3-I-C2], the pKi is given as 8.72. For `COc1ccc(CCC(=O)C=CC=Cc2ccc([N+](=O)[O-])cc2)cc1` [Compound I6-15], the pKi is listed as 5.63. For `COc1ccc(CCC(=O)C=CC=Cc2ccccc2)cc1` [Compound I6-17], the pKi is listed as 5.83. For `CCc1c(-c2ccc(O)cc2)nn(-c2ccc(O)cc2)c1-c1ccc(OCCN2CCOCC2)cc1` [Compound I3-I-B], the pKi is given as 8.49. For `COc1ccc(CCC(=O)C=CC=Cc2ccc(O)c(OC)c2)cc1` [Compound I6-12], the pKi is listed as 5.86. For `O=C(C=CC=Cc1ccccc1)CCc1ccccc1` [Compound I6-1], the pKi is listed as 6.19. For `COc1ccc(CCC(=O)C=CC=Cc2ccc(N(C)C)cc2)cc1` [Compound I6-18], the pKi is listed as 5.66. In the case of `CN(C)c1ccc(C=CC=CC(=O)CCc2ccc(O)cc2)cc1` [Compound I6-10], the pKi is listed as 3.63. For `CCCc1c(-c2ccc(O)cc2)nn(-c2ccc(O)cc2)c1-c1ccc(O)cc1` [Compound I3-I3], the pKi is listed as 9.23. In the case of `CCCc1c(-c2ccc(O)cc2)nn(-c2ccc(O)cc2)c1-c1ccc(OCCN2CCCCC2)cc1` [Compound I3-I-A3], the pKi is given as 8.36. For `Cc1c(-c2ccc(O)cc2)nn(-c2ccc(O)cc2)c1-c1ccc(OCCN2CCCC2)cc1` [Compound I3-I-C1], the pKi is given as 7.60. In the case of `O=C(C=CC=Cc1ccc([N+](=O)[O-])cc1)CCc1ccccc1` [Compound I6-16], the pKi is listed as 6.29. For `COc1cc(C=CC=CC(=O)CCc2ccccc2)ccc1O` [Compound I6-14], the pKi is given as 6.01. In the case of `CCN(CC)CCOc1ccc(-c2c(C)c(-c3ccc(O)cc3)nn2-c2ccc(O)cc2)cc1` [Compound I3-I-E1], the pKi is given as 8.42. In the case of `CCc1c(-c2ccc(O)cc2)nn(-c2ccc(O)cc2)c1-c1ccc(OCC(O)CO)cc1` (stereo not drawn) [Compound I3-I-G], the pKi is given as 8.37.

Same assay, conditions: modeled test set TSMOD3; cited from earlier work
For `O=c1c(O)c(-c2ccc(O)cc2)oc2ccc(O)cc12` [-Trihydroxy flavone], the pRBA is given as 3.35. For `O=c1cc(-c2ccc(O)cc2)oc2ccc(O)cc12` [-Dihydroxyflavone], the pRBA is listed as 3.82. In the case of `O=c1cc(-c2ccccc2)oc2ccc(O)cc12` [6-Hydroxyflavone], the pRBA is listed as 6.40. For `O=c1cc(-c2ccccc2)oc2cc(O)c(O)c(O)c12` [Baicalein], the pRBA is listed as 6.05. For `O=c1c(-c2ccc(O)c(O)c2)coc2cc(O)ccc12` [-Trihydroxy isoflavone], the pRBA is given as 5.35. In the case of `O=C1CC(c2ccccc2)Oc2ccc(O)cc21` (stereo not drawn) [6-Hydroxyflavanone], the pRBA is given as 6.05. For `COc1ccc(-c2coc3cc(O)cc(O)c3c2=O)cc1` [Biochanin A], the pRBA is listed as 5.37.
